Consider one compound from US12433835B2, “Cosmetic composition and treatment for treating skin sagging” (Sederma, priority 2020, dated 2025).

In the assay the test system is Fibroblasts. The experiment in a line: Contraction of collagen lattice by MGO-stressed fibroblasts. The assay is classed as cell-based. Conditions: MGO contact 2 days, with or without extract at 0.5%; control without MGO = 100%; n=3. From the text:
The contraction function of fibroblasts is important for ensuring a good elasticity to the skin. The application on fibroblasts of the glycating substance (MGO: methylglyoxal) allows to mimic in accelerate the loss of contractility of fibroblasts occurring during aging. Fibroblasts were brought into contact with the MGO for 2 days, in nontoxic quantity, with or without the extract according to the invention. After this contact, the cells were included in a collagen gel to form a dermis equivalent called lattice. Fibroblasts anchor themselves to the collagens and begin to contract the gel like they do in the skin. This contraction was followed after 16 h and measured using an ImageQuant LAS4000 imager by following the modification on the gel surface.

On to `CC(=O)C=O` [MGO, methylglyoxal], for which the “Gel contraction at 16 h (%)” value was determined as 59.9%.
